{
  "source": "patent US7776557B2",
  "about": "“Method for monitoring tocolytic treatment” (Diagnostic Technologies Ltd., priority 2006, dated 2010)",
  "tested_on": "PP13",
  "test": "PP13 level in maternal venous serum of pregnant women under tocolytic treatment, solid-phase sandwich ELISA",
  "assay_type": "in vivo, human",
  "details": "Example V: repeated administrations, compared with normal",
  "description": "In all experiments, PP13 was measured (blinded to pregnancy outcome) in maternal venous serum by solid-phase sandwich ELISA assay. PP13 level was calibrated according to standard curves prepared from calibrated standards of recombinant PP13. Concentrations are given in pg PP13/ml serum.\nThis clinical study was approved by the medical center internal review ethical committee, and all women enrolled in the study provided informed consent to allow the use of a small volume of their blood to determine the level of PP13.",
  "data": [
    {"compound": "COC(=O)C1=C(C)NC(C)=C(C(=O)OC)C1c1ccccc1[N+](=O)[O-]", "note": "[nifedipine]", "values": [
      {"measurement": "area of elevated PP13 level above normal", "result": 5.8, "unit": "times"}
    ]}
  ]
}
